# According to US20240217982A1, “KRAS INHIBITORS” (Bristol-Myers Squibb Company, priority 2021, published 2024):
# Legend:
# KRAS G12D [1] = target: T1, KRAS G12D (Homo sapiens (Human), UniProt P01116, G12D); experiment: KRAS G12D RAF Disruption Assay (HTRF); format: biochemical; conditions: recombinant GMPPNP-loaded KRAS G12D (5 nM), GST-RAF1 RBD (9 nM), HTRF signal
# Description: Recombinant GMPPNP-loaded KRAS G12D (5 nM) was treated with compound at room temperature for 20 minutes in assay buffer (50 mM Tris pH 7.5, 100 mM NaCl, 1 mM MgCl2, 1 mM DTT, 100 ug/mL BSA).
# KRAS G12D [2] = target: T1, KRAS G12D; experiment: KRAS G12D Nucleotide Exchange Assay (HTRF); format: biochemical; conditions: recombinant GDP-loaded KRAS G12D (20 nM), BIODIPY-labeled GDP (400 nM), recombinant SOS (10 nM), HTRF signal
# Description: Recombinant GDP-loaded KRAS G12D (20 nM) was treated with compound at room temperature for 20 minutes in assay buffer (10 mM Hepes pH 7.4, 150 mM NaCl, 5 mM MgCl2, 0.0025% Igepal-CA630, 0.05% BSA, 1 mM DTT, 0.5 nM SA-Tb). BIODIPY-labeled GDP (400 nM) and recombinant SOS (10 nM) were added, and the reaction was incubated for 30 minutes.
# T1 sequence (P01116-2 other isoform, or with tags, fused parts or gaps G12D): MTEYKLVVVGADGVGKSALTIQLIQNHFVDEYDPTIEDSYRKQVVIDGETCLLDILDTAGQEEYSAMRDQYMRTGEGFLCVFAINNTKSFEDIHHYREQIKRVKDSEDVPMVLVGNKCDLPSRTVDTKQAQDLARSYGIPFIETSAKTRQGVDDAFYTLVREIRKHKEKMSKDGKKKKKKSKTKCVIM
Compound,"KRASG12D RAF Disruption Assay (IC50, µM) (KRAS G12D [1])","KRASG12D Nucleotide Exchange Assay (IC50, µM) (KRAS G12D [2])"
"Cc1cc(N)nc(-c2c(Cl)cc3c(N4CC[C@H]5CC[C@@H](C4)N5)nc(OC[C@@]45CCCN4C[C@H](F)C5)nc3c2F)c1C(F)(F)F [Example 4-1, 6-(2-{[(2R,7aS)-2-fluoro-hexahydro-1H-pyrrolizin-7a-yl]methoxy}-6-chloro-4-[(1S,6R)-3,9-diazabicyclo[4.2.1]nonan-3-yl]-8-fluoroquinazolin-7-yl)-4-methyl-5-(trifluoromethyl)pyridin-2-amine]",0.06 µM,0.005 µM
"CCc1cccc2cc(O)cc(-c3c(Cl)cc4c(N5CC[C@H]6CC[C@@H](C5)N6)nc(OC[C@@]56CCCN5C[C@H](F)C6)nc4c3F)c12 (single isomer, unassigned) [Example 8-2]",19.6 µM,1.3 µM
"Oc1cc(-c2c(Cl)cc3c(N4CC[C@H]5CC[C@@H](C4)N5)nc(OC[C@@]45CCCN4C[C@H](F)C5)nc3c2F)c2c(F)cccc2c1 (single isomer, unassigned) [Example 8-6]",3.6 µM,0.07 µM
"Oc1cc(-c2c(Cl)cc3c(N4CC[C@H]5CC[C@@H](C4)N5)nc(OC[C@@]45CCCN4C[C@H](F)C5)nc3c2F)c2ccccc2c1 (single isomer, unassigned) [Example 8-8]",15.5 µM,0.3 µM
"CN1CCC[C@H]1COc1nc(N2C3CCNCC2CC3)c2cc(Cl)c(-c3cc(O)cc4ccccc34)c(F)c2n1 (stereo partly drawn) [Example 1-1, 4-(6-chloro-4-{3,9-diazabicyclo[4.2.1]nonan-9-yl}-8-fluoro-2-{[(2S)-1-methylpyrrolidin-2-yl]methoxy}quinazolin-7-yl)naphthalen-2-ol]",41.99 µM,33.33 µM
"Cc1cc(N)nc(-c2c(Cl)cc3c(N4CC[C@H]5CC[C@@H](C4)N5)nc(OC[C@]45CCC[C@H]4N(C)CCC5)nc3c2F)c1C(F)(F)F [Example 3, 6-(2-{[(4aS,7aR)-1-methyl-octahydro-1H-cyclopenta[b]pyridin-4a-yl]methoxy}-6-chloro-4-[(1S,6R)-3,9-diazabicyclo[4.2.1]nonan-3-yl]-8-fluoroquinazolin-7-yl)-4-methyl-5-(trifluoromethyl)pyridin-2-amine]",0.05 µM,<0.002 µM

# More lines, now with the values ahead:
"KRASG12D RAF Disruption Assay (IC50, µM) (KRAS G12D [1])","KRASG12D Nucleotide Exchange Assay (IC50, µM) (KRAS G12D [2])",Compound
0.17 µM,0.02 µM,"C#Cc1c(F)ccc2cc(O)cc(-c3ccc4c(N5CC[C@H]6CC[C@@H](C5)N6)nc(OC[C@@]56CCCN5C[C@H](F)C6)nc4c3F)c12 [Example 11-6, 4-(2-{[(2R,7aS)-2-fluoro-hexahydro-1H-pyrrolizin-7a-yl]methoxy}-4-[(1S,6R)-3,9-diazabicyclo[4.2.1]nonan-3-yl]-8-fluoroquinazolin-7-yl)-5-ethynyl-6-fluoronaphthalen-2-ol]"
3.0 µM,0.05 µM,"CCc1cccc2cc(O)cc(-c3ccc4c(N5CC[C@H]6CC[C@@H](C5)N6)nc(OC[C@]56CCC[C@H]5N(C)CCC6)nc4c3F)c12 [Example 9-3, 4-(2-{[(4aS,7aR)-1-methyl-octahydro-1H-cyclopenta[b]pyridin-4a-yl]methoxy}-4-[(1S,6R)-3,9-diazabicyclo[4.2.1]nonan-3-yl]-8-fluoroquinazolin-7-yl)-5-ethylnaphthalen-2-ol]"
1.0 µM,0.007 µM,"Cc1cc(N)nc(-c2c(Cl)cc3c(N4CC[C@H]5CC[C@@H](C4)N5)nc(OCC4(CN(C)C)CC4)nc3c2F)c1C(F)(F)F [Example 10-1, 6-{6-chloro-4-[(1S,6R)-3,9-diazabicyclo[4.2.1]nonan-3-yl]-2-({1-[(dimethylamino)methyl]cyclopropyl}methoxy)-8-fluoroquinazolin-7-yl}-4-methyl-5-(trifluoromethyl)pyridin-2-amine]"
5.1 µM,0.04 µM,"CN1CCC[C@@]2(COc3nc(N4CC[C@H]5CC[C@@H](C4)N5)c4ccc(-c5cc(O)cc6ccccc56)c(F)c4n3)CCC[C@@H]12 [Example 9-1, 4-(2-{[(4aS,7aR)-1-methyl-octahydro-1H-cyclopenta[b]pyridin-4a-yl]methoxy}-4-[(1S,6R)-3,9-diazabicyclo[4.2.1]nonan-3-yl]-8-fluoroquinazolin-7-yl)naphthalen-2-ol]"
2.7 µM,0.06 µM,"C#Cc1c(F)ccc2cc(O)cc(-c3ccc4c(N5CC[C@H]6CC[C@@H](C5)N6)nc(OCC5(CN(C)C)CC5)nc4c3F)c12 [Example 11-1, 4-{4-[(1S,6R)-3,9-diazabicyclo[4.2.1]nonan-3-yl]-2-({1-[(dimethylamino)methyl]cyclopropyl}methoxy)-8-fluoroquinazolin-7-yl}-5-ethynyl-6-fluoronaphthalen-2-ol]"
3.2 µM,0.03 µM,"CCc1cccc2cc(O)cc(-c3ccc4c(N5CC[C@H]6CC[C@@H](C5)N6)nc(OC[C@@]56CCCN5C[C@H](F)C6)nc4c3F)c12 [Example 11-5, 4-(2-{[(2R,7aS)-2-fluoro-hexahydro-1H-pyrrolizin-7a-yl]methoxy}-4-[(1S,6R)-3,9-diazabicyclo[4.2.1]nonan-3-yl]-8-fluoroquinazolin-7-yl)-5-ethylnaphthalen-2-ol]"
43.1 µM,2.2 µM,"Nc1cc2cccc(F)c2c(-c2ccc3c(N4CC[C@H]5CC[C@@H](C4)N5)nc(OC[C@@]45CCCN4C[C@H](F)C5)nc3c2F)n1 [Example 11-4, 1-(2-{[(2R,7aS)-2-fluoro-hexahydro-1H-pyrrolizin-7a-yl]methoxy}-4-[(1S,6R)-3,9-diazabicyclo[4.2.1]nonan-3-yl]-8-fluoroquinazolin-7-yl)-8-fluoroisoquinolin-3-amine]"
54.4 µM,2.0 µM,"CCc1cccc2cccc(-c3ccc4c(N5CC[C@H]6CC[C@@H](C5)N6)nc(OC[C@@]56CCCN5C[C@H](F)C6)nc4c3F)c12 [Example 11-8, 2-{[(2R,7aS)-2-fluoro-hexahydro-1H-pyrrolizin-7a-yl]methoxy}-4-[(1S,6R)-3,9-diazabicyclo[4.2.1]nonan-3-yl]-7-(8-ethylnaphthalen-1-yl)-8-fluoroquinazoline]"
80.0 µM,0.33 µM,"Cc1cc(N)nc(-c2ccc3c(N4CC[C@H]5CC[C@@H](C4)N5)nc(OC[C@]45CCCN4C[C@H](F)C5)nc3c2F)c1C(F)(F)F [Example 12-2, 6-(2-{[(2R,7aR)-2-fluoro-hexahydro-1H-pyrrolizin-7a-yl]methoxy}-4-[(1S,6R)-3,9-diazabicyclo[4.2.1]nonan-3-yl]-8-fluoroquinazolin-7-yl)-4-methyl-5-(trifluoromethyl)pyridin-2-amine]"
2.4 µM,0.02 µM,"Cc1cc(N)nc(-c2c(Cl)cc3c(N4CC[C@H]5CC[C@@H](C4)N5)nc(OCC4(CN5CCCC(F)C5)CC4)nc3c2F)c1C(F)(F)F (stereo partly drawn) [Example 10-10, 6-{6-chloro-4-[(1S,6R)-3,9-diazabicyclo[4.2.1]nonan-3-yl]-8-fluoro-2-({1-[(3-fluoropiperidin-1-yl)methyl]cyclopropyl}methoxy)quinazolin-7-yl}-4-methyl-5-(trifluoromethyl)pyridin-2-amine]"
